Laboratory results published in patent US7442529B2, “Fluorescent probes for biological studies” (Massachusetts Institute of Technology, priority 2005, dated 2008).
Counter-ions that a name gives are not always drawn. Values belong to the compound of their own block, whether it stands above or below them. Non-standard residues stand in square brackets, D forms with d. Residues, ends and D or L forms follow the SMILES beside them. Dap(6-DMN) = CN(C)c1ccc2cc3c(cc2c1)C(=O)N(C[C@H](N)C(=O)O)C3=O; pY = N[C@@H](Cc1ccc(OP(=O)(O)O)cc1)C(=O)O

What was measured:
[1] = target: T1, GST-Abl SH2 (Homo sapiens, UniProt P00519); assay: Fluorescence titration of peptides with GST-Abl SH2, determination of Kd; type: binding
T1 construct: The SH2 domain was cloned using BamH1 (5′) EcoR1 (3′) sites; made in house; host or cells: E. coli (plasmid received from elsewhere; strain not clearly stated for Abl)
T1 sequence (P00519 127-217 limits assumed): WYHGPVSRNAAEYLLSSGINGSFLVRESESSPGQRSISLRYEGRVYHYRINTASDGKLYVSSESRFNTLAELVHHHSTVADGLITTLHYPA
Experimental: (§1) The peptides of Table 1 were incubated with targeted and nontargeted SH2 domains. The binding of peptides Crk-bp, Crk-bp2, Abl-bp, and Abl-bp2 to SH2 target domains can be studied by fluorescence titration as shown in FIGS. 1-4.
Fluorescence titrations of Abl-bp with non-targeted GST-PI3K SH2 and […] are shown in FIG. 2 (b) and 4 (c), respectively. The relative fluorescence emission intensities for the Abl-bp peptide and aforementioned SH2 domain titrations are shown in FIG. 2 (c).
Fluorescence titrations Abl-bp2 with non-targeted GST-PI3K SH2 and GST-Crk SH2 are shown in FIGS. 3 (b) and 4 (d), respectively. The relative fluorescence emission intensities for the Abl-bp2 peptide and aforementioned SH2 domain titrations are shown in FIG. 3 (c).
(§2) Peptide stock solutions of known concentration (determined by UV absorbance at 388 nm, E=7980 M−1 cm−1) were used to prepare 5 μM peptide concentration samples in buffered water (150 μL total volume, 100 mM NaCl, 10 mM sodium phosphate, pH 7.5). 2 μL aliquots of the corresponding stock protein solution (GST-Crk SH2, GST-Abl SH2 or GST-PI3K SH2, concentration determined by Bio-Rad Protein Assay) were consecutively added, and fluorescence emission spectra were recorded 1 minute after each addition ([…], 2 nm excitation and emission slit width). The increase in emission intensity at the maximum emission wavelength was plotted against total protein concentration and fitted by least-square analysis assuming a 1 to 1 binding mode to obtain the apparent Kd.
Abl-SH2 was received as a GST fusion in a pGEX-KT vector, amp-resistant, IPTG-inducible. The SH2 domain was cloned using BamH1 (5′) EcoR1 (3′) sites.

[2] = test system: GST-PI3K SH2; assay: Fluorescence titration of peptides with GST-PI3K SH2 (non-target domain); type: binding; conditions: peptide saturated with GST-PI3K SH2, 565 nm (FIG. 1c)
Experimental: as §1
(§3) Fluorescence titrations of Crk-bp and Crk-bp2 with targeted GST-Crk SH2 are shown in FIG. 1 (a) and (b), respectively. Fluorescence titrations of Crk-bp and Crk-bp2 with non-targeted GST-Abl SH2 are shown in FIG. 4 (a) and (b), respectively.
Peptide stock solutions of known concentration (determined by UV absorbance at 388 nm, E=7980 M−1 cm−1) were used to prepare 5 μM peptide concentration samples in buffered water (150 μL total volume, 100 mM NaCl, 10 mM sodium phosphate, pH 7.5). 2 μL aliquots of the corresponding stock protein solution (GST-Crk SH2, GST-Abl SH2 or GST-PI3K SH2, concentration determined by Bio-Rad Protein Assay) were consecutively added, and fluorescence emission spectra were recorded 1 minute after each addition (excitation 395 nm, 2 nm excitation and emission slit width). […]
Src and PI3K SH2 domains were expressed and purified as GST fusion following reported procedures. […] Proteins were quantified using the Micro BCA protein Assay Kit (Pierce) relative to a BSA standard. All fusion proteins were analyzed by Coomasie staining and Western analysis with anti-GST antibodies.

[3] = target: GST-Crk SH2 (Homo sapiens, UniProt P46108); assay: Fluorescence titration of peptides with GST-Crk SH2, determination of Kd; type: binding; set-up: Human Crk SH2 domain was expressed as a GST fusion protein; made in house; host or cells: E. coli NB42
Experimental: as §1, §3, §2
Human Crk SH2 domain was expressed as a GST fusion protein transformed into E. coli NB42 strain. Expression of SH2 domains was carried out following reported conditions. […]

[4] = Photophysical properties: UV absorbance, fluorescence emission and quantum yield in different solvents; type: physicochemical; conditions: for quantum yield (Φ): vs. quinine sulfate standard
Experimental: Quantum yields (Φ) were measured by comparison with a standard, which emits in a similar region to the test sample. From the available standard compounds quinine sulfate in 0.1 M H2SO4 (Φ=0.54) was selected.
UV absorbance at the excitation wavelength (375 nm), and fluorescence emission spectra of a series of solutions of the standard and compound were recorded. Solutions were prepared with different absorbances, ranging from 0 (solvent blank) to 0.1. A series of graphs of integrated fluorescence vs. absorbance were obtained. The data were fitted to a linear equation with gradient (grad), and intercept=0. See FIG. 5 as an example of the plots obtained.
The gradients of graphs in FIG. 5 are proportional to the quantum yield of the different samples. Absolute values were calculated using the standard sample, which has a fixed and known fluorescence quantum yield value, according to the following equation: […]
Where the subscripts std and x denote standard and test respectively. The value Φ is the fluorescence quantum yield, grad is the gradient (grad) from the plot of integrated fluorescence intensity vs. absorbance, and η the refractive index of the solvent.
The UV absorbance spectra (40 μM in methanol) and fluorescence emission spectra of compound (VIII), 6DMN-GlyOMe are shown in FIG. 6 and tabulated in Table 4. The UV spectrum of 6DMN-GlyOMe has an intense absorption band at 378 nm which is not found in unsubstituted 2,3-naphthalimides. The maximum excitation wavelength of 6DMN-GlyOMe is at 375 nm.
Quantum yields (Φ) were measured in the solvents listed in Table 2 by comparison with a standard, which emits in a similar region to 6DMN-GlyOMe. Quinine sulfate in 0.1 M H2SO4 (Φ=0.54) was used as the standard. (Melhuish, W. B. J. Phys. Chem., 1961, 65, 229-235). Solutions were prepared at different concentrations such that the absorbance measurements ranged between 0 and 0.1 at and above the excitation wavelength to avoid non-linear effects.
UV absorbance at the excitation wavelength (375 nm), and fluorescence emission spectra of a series of solutions of the standard and 6DMN-GlyOMe were recorded. A series of graphs of integrated fluorescence vs. absorbance were obtained. The data were fitted to a linear equation with gradient (grad), and intercept=0. The gradient (grad) is proportional to the quantum yield of the sample. Absolute values were calculated using the standard sample, which has a fixed and known fluorescence quantum yield value, according to the equation above.

[5] = Lippert-Mataga plot: Stokes shift vs. orientation polarizability; type: physicochemical; conditions: from Stokes shift in 1,4-dioxane/acetonitrile mixtures
Description: This can be estimated from a Lippert-Mataga plot, which is essentially a plot of the Stokes shift of the fluorescence emission versus the solvent polarity. (Lippert, V. E. Z. Elektrochem. 1957, 61, 962-975; Mataga, N.; Kaifu, Y.; Koizumi, M. Bull. Chem. Soc. Jpn. 1956, 29, 465-470.)
The difference (Δ v) in the maximum absorption ( vA) and emission wavelengths ( vF), known as the Stokes shift and expressed in wavenumbers, is plotted vs. Δf. The term Δf is called the orientation polarizability and can be calculated according to the following equation:
[formula] where ε is the solvent dielectric constant and n is the solvent refraction index.
The term Δf can also be calculated for a mixture of solvents. […] In this case, Δf is obtained for each mixture using ε and n values calculated using the molar fractions (χ) in the equation as follow: ε=(χacetonitrile)(38.8)+(χdiox)(2.218) (3) n=(χacetonitrile)(1.3442)+(χdiox)(1.4224) (4) where χacetonitrile+χdiox=1.
The relationship between Δ v and Δf is expressed by the following equation:
[formula] where c is the velocity of light, h is Plank's constant, μe−μg is the difference between the dipole moments of the excited and the ground states respectively (Δμ), and α0 is the radius of the Onsager cavity around the compound.

[6] = in 0.1 M H2SO4; Melhuish 1961; cited from earlier work

Compound: CC[C@H](C)[C@H](NC(=O)[C@H](CC(N)=O)NC(=O)[C@@H]1CCCN1C(=O)[C@H](Cc1c[nH]cn1)NC(=O)[C@H](CC(=O)O)NC(=O)[C@H](Cc1ccc(OP(=O)(O)O)cc1)NC(=O)[C@H](CCC(N)=O)NC(=O)[C@H](CN1C(=O)c2cc3ccc(N(C)C)cc3cc2C1=O)NC(=O)CNC(C)=O)C(N)=O [Crk-bp2, Ac-Gly-Dap(6DMN)-Gln-pTyr-Asp-His-Pro-Asn-Ile-(CONH2) (SEQ ID NO: 5)] (Ac-G[Dap(6-DMN)]Q[pY]DHPNI-NH2)
relative fluorescence emission intensity with non-target SH2 domain compared with targeted GST-Crk SH2 ([1]; peptide saturated with GST-Abl SH2, 565 nm (FIG. 1c)): notably less
relative fluorescence emission intensity with non-target SH2 domain compared with targeted GST-Crk SH2 [2]: notably less

Compound: CC[C@H](C)[C@H](NC(=O)[C@H](CC(N)=O)NC(=O)[C@@H]1CCCN1C(=O)[C@H](Cc1c[nH]cn1)NC(=O)[C@H](CC(=O)O)NC(=O)[C@H](Cc1ccc(OP(=O)(O)O)cc1)NC(=O)[C@H](CCC(N)=O)NC(=O)[C@H](CN1C(=O)c2cc3ccc(N(C)C)cc3cc2C1=O)NC(=O)[C@H](CCC(=O)O)NC(C)=O)C(N)=O [Crk-bp, Ac-Glu-Dap(6DMN)-Gln-pTyr-Asp-His-Pro-Asn-Ile-(CONH2) (SEQ ID NO: 1)] (Ac-E[Dap(6-DMN)]Q[pY]DHPNI-NH2)
Kd [3]: 4.8 ± 2 µM
Fluorescence increase ([3]; target Crk SH2, excitation 375 nm, emission 565 nm): 500%^b

maximum excitation wavelength [4]: 375 nm
intense absorption band of the UV spectrum ([4]; 40 μM in methanol): 378 nm
absorbance maximum ([4]; 1,4-dioxane): 372 nm
emission maximum ([4]; 1,4-dioxane): 498 nm
quantum yield (Φ) ([4]; 1,4-dioxane): 0.220
absorbance maximum ([4]; 2-propanol): 385 nm
emission maximum ([4]; 2-propanol): 589 nm
quantum yield (Φ) ([4]; 2-propanol): 0.018
absorbance maximum ([4]; DMF): 380 nm
emission maximum ([4]; DMF): 545 nm
quantum yield (Φ) ([4]; DMF): 0.155
absorbance maximum ([4]; acetone): 375 nm
emission maximum ([4]; acetone): 532 nm
quantum yield (Φ) ([4]; acetone): 0.148
absorbance maximum ([4]; acetonitrile): 380 nm
emission maximum ([4]; acetonitrile): 549 nm
quantum yield (Φ) ([4]; acetonitrile): 0.135
absorbance maximum ([4]; chloroform): 380 nm
emission maximum ([4]; chloroform): 509 nm
quantum yield (Φ) ([4]; chloroform): 0.225
absorbance maximum ([4]; dichloromethane): 379 nm
emission maximum ([4]; dichloromethane): 517 nm
quantum yield (Φ) ([4]; dichloromethane): 0.210
absorbance maximum ([4]; ethanol): 379 nm
emission maximum ([4]; ethanol): 584 nm
quantum yield (Φ) ([4]; ethanol): 0.027
absorbance maximum ([4]; methanol): 382 nm
emission maximum ([4]; methanol): 589 nm
quantum yield (Φ) ([4]; methanol): 0.012
absorbance maximum ([4]; tetrahydrofuran): 373 nm
emission maximum ([4]; tetrahydrofuran): 510 nm
quantum yield (Φ) ([4]; tetrahydrofuran): 0.147
absorbance maximum ([4]; toluene): 373 nm
emission maximum ([4]; toluene): 491 nm
quantum yield (Φ) ([4]; toluene): 0.208
absorbance maximum ([4]; water): 388 nm
emission maximum ([4]; water): 592 nm
increase in the dipole moment between ground and excited state [5]: 5.5 D
Compound: COC(=O)CN1C(=O)c2cc3ccc(N(C)C)cc3cc2C1=O [Peptide 6DMN-GlyOMe]

Compound: C=C[C@H]1C[N@@]2CC[C@H]1C[C@H]2[C@H](O)c1ccnc2ccc(OC)cc12 [quinine sulfate]
quantum yield (Φ) of the standard [6]: 0.54

Kd ([1]; target Abl SH2, 20 μM in PBS buffer, pH 7.5): 12 ± 2 µM
Compound: Ac-Dap(6DMN)-Gln-pTyr-Glu-Asn-Val-Gln-Ser-(CONH2) (SEQ OD NO: 7) [Abl-bp2]

Compound: Ac-Gly-Dap(6DMN)-Gln-pTyr-Glu-Asn-Val-Gln-Ser-(CONH2) (SEQ ID NO: 6) (Ac-G[Dap(6DMN)]Q[pY]ENVQS-NH2) [Abl-bp]
Fluorescence increase ([1]; target Abl SH2, excitation 375 nm, emission 599 nm): 400%^c
quantum yield (Φ) ([4]; water, calculated using peptide Abl-bp): 0.002
